For one assay, the target named is memapsin 2 (Homo sapiens, UniProt P56817). Put plainly: Inhibition of memapsin 2 catalytic activity (Ki). It counts as biochemical. The note with it: memapsin 2, pH 4, 37° C.; read-out: M2K. The method in brief: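 Run at 37 °C and pH 4: compound and enzyme pre-incubated 20 min before FS-2 fluorogenic substrate started hydrolysis,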
The target of the next assay is cathepsin D (Homo sapiens, UniProt P07339). Put plainly: Inhibition of cathepsin D catalytic activity (Ki). It counts as biochemical. The note with it: pH 4.0, 37° C., read-out: CDK.
Sequence of cathepsin D (P07339 65-412, species assumed): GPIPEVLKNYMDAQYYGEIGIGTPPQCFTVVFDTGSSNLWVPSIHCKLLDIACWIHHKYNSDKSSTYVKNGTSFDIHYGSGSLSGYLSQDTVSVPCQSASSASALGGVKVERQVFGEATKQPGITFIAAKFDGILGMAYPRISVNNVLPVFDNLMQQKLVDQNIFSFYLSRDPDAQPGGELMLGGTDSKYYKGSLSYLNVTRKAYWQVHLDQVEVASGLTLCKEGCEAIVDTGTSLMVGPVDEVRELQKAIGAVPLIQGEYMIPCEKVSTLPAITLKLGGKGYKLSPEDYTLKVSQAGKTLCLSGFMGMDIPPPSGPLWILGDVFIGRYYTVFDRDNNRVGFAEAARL
The next assay deals with T1, memapsin 1 (Homo sapiens, UniProt Q9Y5Z0).
T1 sequence (Q9Y5Z0 63-518): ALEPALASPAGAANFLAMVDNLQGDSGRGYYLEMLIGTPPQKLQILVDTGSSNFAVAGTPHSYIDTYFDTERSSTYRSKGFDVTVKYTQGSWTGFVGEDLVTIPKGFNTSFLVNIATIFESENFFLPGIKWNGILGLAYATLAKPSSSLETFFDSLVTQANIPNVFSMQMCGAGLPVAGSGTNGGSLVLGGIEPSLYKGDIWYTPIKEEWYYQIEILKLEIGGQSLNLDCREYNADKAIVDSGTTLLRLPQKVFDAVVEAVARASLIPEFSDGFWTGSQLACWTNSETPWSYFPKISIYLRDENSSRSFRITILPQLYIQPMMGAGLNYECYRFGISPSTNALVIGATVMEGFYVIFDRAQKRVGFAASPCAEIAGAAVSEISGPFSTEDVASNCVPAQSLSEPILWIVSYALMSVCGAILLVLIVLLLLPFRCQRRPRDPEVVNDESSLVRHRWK
Put plainly: Inhibition of memapsin 1 catalytic activity (Ki). The note with it: memapsin 1, pH 4.0, 37° C.; read-out: M1K. It counts as biochemical.

Assay [1] relates to Aβ production in Chinese hamster ovary cells that over-express human APP695 with the London and Swedish mutations. Put plainly: Cellular Aβ IC50 determination (Aβ40 sandwich ELISA). The note with it: Cricetulus griseus, CHO, 24 h, read-out: Cell, Aβ40, CHO cells over-expressing human APP695 (London and Swedish mutations), 24 h.
Method: The potency of compounds against memapsin 2 catalytic activity was determined in a cellular assay of Aβ production. […] Compounds are dissolved in DMSO to concentrations near 1 mM, and diluted into culture media to a final concentration near 4 μM (final 0.4% DMSO). Compounds were diluted serially and applied to cells in multi-well plates 48 h after seeding. Incubation was continued in 5% CO2 at 37 degrees C. for 24 h. Aliquots were removed and assayed for Aβ40 content using a sandwich ELISA (BioSource International). Amount of Aβ40 over the range of concentration of compounds, relative to control incubations, were fit to a 4-parameter IC50 model.

Sequence of memapsin 2 (P56817 46-501): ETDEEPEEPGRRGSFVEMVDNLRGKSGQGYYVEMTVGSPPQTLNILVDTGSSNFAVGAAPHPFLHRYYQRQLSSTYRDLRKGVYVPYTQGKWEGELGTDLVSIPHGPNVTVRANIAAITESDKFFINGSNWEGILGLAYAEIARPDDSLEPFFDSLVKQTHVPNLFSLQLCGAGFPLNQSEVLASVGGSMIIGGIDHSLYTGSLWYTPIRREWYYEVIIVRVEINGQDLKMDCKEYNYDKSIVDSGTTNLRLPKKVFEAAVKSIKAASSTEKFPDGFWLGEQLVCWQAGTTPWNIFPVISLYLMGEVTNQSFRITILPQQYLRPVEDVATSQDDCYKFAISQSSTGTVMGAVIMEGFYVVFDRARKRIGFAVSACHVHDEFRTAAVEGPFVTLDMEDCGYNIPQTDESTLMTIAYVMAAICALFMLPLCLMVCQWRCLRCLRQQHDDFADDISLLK

As for `CC(=O)Nc1cccc(CNCC(O)C(Cc2ccccc2)NC(=O)c2cc(C(=O)NC(C)c3ccccc3)cc(N(C)S(C)(=O)=O)c2)c1` (stereo not shown) [N1-(4-(3-acetamidobenzylamino)-3-hydroxy-1-phenylbutan-2-yl)-5-(N-methylmethylsulfonamido)-N3-(1-phenylethyl)isophthalamide], the Ki is < 300 nM at memapsin 2, 301 to 500 nM at cathepsin D and < 300 nM at memapsin 1. The IC50 in assay [1] was < 1000 nM.
On to `CC(NC(=O)c1cc(C(=O)NC(Cc2ccccc2)C(O)CNCc2cccc(F)c2)cc(N(C)S(C)(=O)=O)c1)c1ccccc1` (stereo not shown) [N1-(4-(3-fluorobenzylamino)-3-hydroxy-1-phenylbutan-2-yl)-5-(N-methylmethylsulfonamido)-N3-(1-phenylethyl)isophthalamide], for which the Ki at memapsin 2 is < 300 nM; at cathepsin D, 301 to 500 nM; at memapsin 1, > 501 nM. For the same molecule, in assay [1], the IC50 was < 1000 nM.
In the case of `Cc1csc(CN(C)C(=O)c2cccc(C(=O)NC(Cc3ccccc3)C(O)CNCc3cccc(F)c3)c2)n1` (stereo not shown) [N1-(4-(3-fluorobenzylamino)-3-hydroxy-1-phenylbutan-2-yl)-N3-methyl-N3-((4-methylthiazol-2-yl)methyl)isophthalamide], the Ki on memapsin 2 is > 501 nM; on cathepsin D, < 300 nM; on memapsin 1 it was > 501 nM. Further, the IC50 in assay [1] is < 1000 nM.
For `CC(NC(=O)c1cc(C(=O)NC(Cc2ccccc2)C(O)CNCc2ccccc2)cc(N(C)S(C)(=O)=O)c1)c1ccccc1` (stereo not shown) [N1-(4-(benzylamino)-3-hydroxy-1-phenylbutan-2-yl)-5-(N-methylmethylsulfonamido)-N3-(1-phenylethyl)isophthalamide], the Ki at memapsin 2, on cathepsin D and at memapsin 1 was < 300 nM in each case. In addition, in assay [1], the IC50 is < 1000 nM.
For the molecule `COc1cccc(CNCC(O)C(Cc2ccccc2)NC(=O)c2cc(C(=O)NCc3nc(C)oc3C)cc(N(C)S(C)(=O)=O)c2)c1` (stereo not shown) [N1-((2,5-dimethyloxazol-4-yl)methyl)-N3-(3-hydroxy-4-(3-methoxybenzylamino)-1-phenylbutan-2-yl)-5-(N-methylmethylsulfonamido)isophthalamide], the Ki at memapsin 2, on cathepsin D and at memapsin 1 was > 501 nM throughout. For the same molecule, in assay [1], the IC50 lay within 1000 to 5000 nM.
With `COc1cccc(CNCC(O)C(Cc2ccccc2)NC(=O)c2cc(C(=O)NCC3COC4OCCC34)cc(N(C)S(C)(=O)=O)c2)c1` (stereo not shown) [N1-((hexahydrofuro[2,3-b]furan-3-yl)methyl)-N3-(3-hydroxy-4-(3-methoxybenzylamino)-1-phenylbutan-2-yl)-5-(N-methylmethylsulfonamido)isophthalamide], the Ki was 301 to 500 nM at memapsin 2, 301 to 500 nM on cathepsin D and > 501 nM at memapsin 1. Also, the IC50 in assay [1] was > 5000 nM.
Take `COc1cccc(CNCC(O)C(Cc2ccccc2)NC(=O)c2cc(C(=O)NCc3ccccc3)cc(N(C)S(C)(=O)=O)c2)c1` (stereo not shown) [N1-benzyl-N3-(3-hydroxy-4-(3-methoxybenzylamino)-1-phenylbutan-2-yl)-5-(N-methylmethylsulfonamido)isophthalamide]: the results for the Ki on memapsin 2, on cathepsin D and at memapsin 1 were < 300 nM, < 300 nM and > 501 nM, respectively. In addition, the IC50 in assay [1] was < 1000 nM.
Turning to `Cc1csc(CN(C(=O)c2cccc(C(=O)NC(Cc3ccccc3)C(O)CNCc3cncc(C(C)C)c3)c2)C2CC2)n1` (stereo not shown) [N1-cyclopropyl-N3-(3-hydroxy-4-((5-isopropylpyridin-3-yl)methylamino)-1-phenylbutan-2-yl)-N1-((4-methylthiazol-2-yl)methyl)isophthalamide], the Ki at memapsin 2, on cathepsin D and on memapsin 1 was < 300 nM throughout. The IC50 in assay [1] was < 1000 nM.
Regarding `COc1cccc(CNCC(O)C(Cc2ccccc2)NC(=O)c2cc(C(=O)NN(C)c3ccccc3)cc(N(C)S(C)(=O)=O)c2)c1` (stereo not shown) [N-(3-hydroxy-4-(3-methoxybenzylamino)-1-phenylbutan-2-yl)-3-(2-methyl-2-phenylhydrazinecarbonyl)-5-(N-methylmethylsulfonamido)benzamide], the Ki at memapsin 2 was < 300 nM; on cathepsin D, < 300 nM; at memapsin 1 it was > 501 nM. Further, in assay [1], the IC50 is < 1000 nM.
Turning to `COC(=O)c1cccc(CNCC(O)C(Cc2ccccc2)NC(=O)c2cc(C(=O)NC(C)c3ccccc3)cc(N(C)S(C)(=O)=O)c2)c1` (stereo not shown) [methyl 3-((2-hydroxy-3-(3-(N-methylmethylsulfonamido)-5-(1-phenylethylcarbamoyl)benzamido)-4-phenylbutylamino)methyl)benzoate], the Ki at memapsin 2, on cathepsin D and at memapsin 1 was > 501 nM throughout. Further, the IC50 in assay [1] is < 1000 nM.

Values taken from patent US7504420B2, “Compounds which inhibit beta-secretase activity and methods of use” (CoMentis, Inc., priority 2005, dated 2009).
